Target: T1, Oxytocin Receptor (CHO-OTR/NFAT-β-Lactamase cells) (Homo sapiens, UniProt P30559)
T1 construct: expressed in transfected cells; host or cells: CHO (CHO-OTR cell line further transfected with the NFAT-β-lactamase reporter)
T1 sequence (P30559 1-389): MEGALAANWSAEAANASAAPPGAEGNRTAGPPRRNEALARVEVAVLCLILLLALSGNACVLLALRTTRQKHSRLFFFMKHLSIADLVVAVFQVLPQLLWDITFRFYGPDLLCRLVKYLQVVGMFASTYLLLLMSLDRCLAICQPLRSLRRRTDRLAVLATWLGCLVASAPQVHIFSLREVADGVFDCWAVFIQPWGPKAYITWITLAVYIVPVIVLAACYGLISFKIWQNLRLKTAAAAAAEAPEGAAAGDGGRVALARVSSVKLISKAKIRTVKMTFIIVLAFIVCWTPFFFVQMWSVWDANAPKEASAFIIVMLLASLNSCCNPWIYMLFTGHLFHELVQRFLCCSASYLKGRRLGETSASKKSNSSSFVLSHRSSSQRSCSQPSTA
Assay: Oxytocin Receptor Beta-Lactamase Assay
Type: cell-based
Details: oxytocin stimulation 4 hours, read-out: oxytocin antagonist activity, expressed as a Ki value
Description: A suitable assay for determining the oxytocin antagonist activity of a compound is detailed herein below.
Oxytocin Receptor Beta-Lactamase Assay
Cells used are CHO-OTR/NFAT-β-Lactamase. The NFAT-β-lactamase expression construct was transfected into the CHO-OTR cell line and clonal populations were isolated via fluorescence activated cell sorting (FACS). An appropriate clone was selected to develop the assay. […]
Cells grown at 80-90% confluence were harvested and counted. […]
Preparation of 1 ml of 6× Loading Buffer with Enhanced Loading Protocol (this requires scale-up according to number of plates to be screened) • 12 μl of solution A (1 mM CCF4-AM in Dry DMSO) was added to 60 μl of solution B (100 mg/ml Pluronic-F127 in DMSO+0.1% Acetic Acid) and vortexed. • The resulting solution was added to 925 μl of solution C (24% w/w PEG400, 18% TR40 v/v in water). • 75 μl of solution D was added (200 mM probenecid in 200 mM NaOH). • 10 μl of 6× Loading Buffer was added to all wells and incubated for 1.5 hrs-2 hrs at room temperature in the dark. • The plates were read using an LJL Analyst, Excitation 405 nm, Emission 450 nm and 530 nm, gain optimal, lagtime 0.40 μs integration, 4 flashes, bottom reading.

COC(=O)N1Cc2nc(OC)ccc2-n2c(nnc2-c2ccc(-c3ccccc3OC)cc2)C1 [Example 8]
Ki: 3 nM

Source: patent publication US20070185078A1, “Substituted triazole derivatives as oxytocin antagonists” (priority 2004, published 2007)
